One block for each compound: values may come before it.
Legend:
Type in all cases: biochemical
[1] = target: Human Factor XIIa (Homo sapiens (Human), UniProt P00748); test: Determination of FXIIa inhibition (fluorogenic substrate H-DPro-Phe-Arg-AFC, IC50 assay); details: substrate H-DPro-Phe-Arg-AFC at Km, 25° C.; class scale A-G
Outline: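 IC50 derived from % remaining activity, taken as the linear fluorescence rate over a 5 min read at 25° C. Substrate H-DPro-Phe-Arg-AFC was used at its Km (Michaelis-Menten) with human FXIIa and serial compound dilutions, 25° C.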

[2] = target: Plasma Kallikrein (Homo sapiens (Human), UniProt P03952); test: Determination of related protease inhibition: Plasma Kallikrein (fluorogenic substrate at Km); details: 25° C., read-out: IC50 (human PKal)
Outline: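 Fluorogenic kinetic assay: human enzyme, substrate at Km, titrated inhibitor; 5 min read at 25 °C; IC50 from % of uninhibited rate.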

[3] = target: KLK1 (Homo sapiens (Human), UniProt P06870); test: Determination of related protease inhibition: KLK1 (fluorogenic substrate at Km); details: 25° C.
Procedure: (§1) Determination of Related Protease Inhibition
(§2) In vitro inhibition of related proteases was determined using an ([…] assay based on standard literature methods (see e.g. Shori et al., Biochem. Pharmacol., 1992, 43, 1209; Bouckaert et al., European Journal of Medicinal Chemistry 110 (2016) 181). Human serine protease enzymes Plasma Kallikrein, KLK1, FXa, Plasmin, Thrombin and Trypsin were assayed for enzymatic activity using an appropriate fluorogenic substrate at Km concentration, FXIa at fixed substrate concentration of 100 μM, and various concentrations of the test compound. Protease activity was measured by monitoring the accumulation of liberated fluorescence from the substrate over […]. The linear rate of fluorescence increase per minute was expressed as percentage (%) activity. IC50 values were calculated as the concentration of inhibitor giving 50% inhibition of the uninhibited enzyme activity (100%).

[4] = target: FXa (Homo sapiens (Human), UniProt P00742); test: Determination of related protease inhibition: FXa (fluorogenic substrate at Km); details: 25° C.
Procedure: as §1, §2

[5] = target: Thrombin (Homo sapiens (Human), UniProt P00734); test: Determination of related protease inhibition: Thrombin (fluorogenic substrate at Km); details: 25° C.
Procedure: as §1, §2

Chain of FXa (P00742 235-488): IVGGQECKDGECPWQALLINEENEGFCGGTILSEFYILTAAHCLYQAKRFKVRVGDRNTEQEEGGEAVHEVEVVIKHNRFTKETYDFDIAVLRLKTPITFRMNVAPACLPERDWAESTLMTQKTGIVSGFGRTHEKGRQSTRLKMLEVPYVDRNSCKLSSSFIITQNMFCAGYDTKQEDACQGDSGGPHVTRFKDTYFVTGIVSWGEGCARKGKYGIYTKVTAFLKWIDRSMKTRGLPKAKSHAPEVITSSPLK
Chain of FXa (P00742 41-179 partner): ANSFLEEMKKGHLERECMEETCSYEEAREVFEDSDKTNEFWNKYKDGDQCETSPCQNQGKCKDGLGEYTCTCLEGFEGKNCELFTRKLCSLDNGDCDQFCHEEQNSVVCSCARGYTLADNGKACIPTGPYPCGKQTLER
Chain of Plasma Kallikrein (P03952 391-638): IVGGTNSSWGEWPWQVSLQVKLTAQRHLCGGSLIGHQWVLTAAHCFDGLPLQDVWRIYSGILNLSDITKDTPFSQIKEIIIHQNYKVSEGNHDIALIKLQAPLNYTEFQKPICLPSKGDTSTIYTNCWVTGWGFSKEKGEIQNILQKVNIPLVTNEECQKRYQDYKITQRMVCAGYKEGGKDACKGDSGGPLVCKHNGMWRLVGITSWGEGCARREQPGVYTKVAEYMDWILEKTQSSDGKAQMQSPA
Chain of Plasma Kallikrein (P03952 20-390 partner): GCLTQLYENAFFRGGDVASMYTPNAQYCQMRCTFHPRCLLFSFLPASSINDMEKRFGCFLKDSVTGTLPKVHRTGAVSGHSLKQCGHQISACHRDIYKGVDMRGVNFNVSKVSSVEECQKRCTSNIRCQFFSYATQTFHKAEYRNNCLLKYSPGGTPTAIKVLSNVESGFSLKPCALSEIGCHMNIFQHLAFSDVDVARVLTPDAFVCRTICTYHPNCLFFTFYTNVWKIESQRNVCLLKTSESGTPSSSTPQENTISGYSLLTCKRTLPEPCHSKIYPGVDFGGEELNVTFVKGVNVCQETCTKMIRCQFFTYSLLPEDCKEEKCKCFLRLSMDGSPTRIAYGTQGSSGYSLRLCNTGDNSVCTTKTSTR
Chain of KLK1 (P06870 25-262): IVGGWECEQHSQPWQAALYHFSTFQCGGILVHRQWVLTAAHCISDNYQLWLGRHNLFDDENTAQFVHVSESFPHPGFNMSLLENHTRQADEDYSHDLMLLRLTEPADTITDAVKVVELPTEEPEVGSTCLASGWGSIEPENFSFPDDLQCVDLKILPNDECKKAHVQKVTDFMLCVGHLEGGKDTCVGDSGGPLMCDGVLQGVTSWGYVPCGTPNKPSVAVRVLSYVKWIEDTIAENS
Chain of Human Factor XIIa (P00748 373-615): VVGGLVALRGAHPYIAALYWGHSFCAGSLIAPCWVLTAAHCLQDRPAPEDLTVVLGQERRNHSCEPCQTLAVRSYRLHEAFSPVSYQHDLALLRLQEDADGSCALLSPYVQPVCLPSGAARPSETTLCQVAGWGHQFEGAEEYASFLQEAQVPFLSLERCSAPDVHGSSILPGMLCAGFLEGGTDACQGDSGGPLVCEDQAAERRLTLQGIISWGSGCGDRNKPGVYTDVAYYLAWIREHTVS

Compound: Nc1nccc2c(NCc3ccc(CN4CCOCC4)cc3F)cccc12 [Example 1034, 5-N-{[2-fluoro-4-(morpholin-4-ylmethyl)phenyl]methyl}isoquinoline-1,5-diamine]
- IC50 [1]: 10 to 40 µM
- IC50 [2]: > 40 µM
- IC50 [3]: 10 to 40 µM
- IC50 [4]: > 40 µM
- IC50 [5]: > 40 µM

Compound: Cn1ccnc1CCCOc1ncc(CNc2cccc3c(N)nccc23)cn1 [Example 1035, N5-((2-(3-(1-methyl-1H-imidazol-2-yl)propoxy)pyrimidin-5-yl)methyl)isoquinoline-1,5-diamine]
- IC50 [1]: 3 to 10 µM
- IC50 [2]: > 40 µM
- IC50 [3]: 10 to 40 µM
- IC50 [4]: > 40 µM
- IC50 [5]: > 40 µM

Compound: CN1CCC(CNc2ccc(CNc3ccnc(N)c3)cn2)CC1 [Example 1096, N4-((6-(((1-methylpiperidin-4-yl)methyl)amino)pyridin-3-yl)methyl)pyridine-2,4-diamine]
- IC50 [1]: 3 to 10 µM
- IC50 [2]: > 40 µM
- IC50 [3]: 10 to 40 µM
- IC50 [4]: 10 to 40 µM
- IC50 [5]: 10 to 40 µM

Compound: CN1CCC(CNc2ccc(CNc3ccc4cnccc4c3Cl)cn2)CC1 [Example 1209, 5-chloro-N-((6-(((1-methylpiperidin-4-yl)methyl)amino)pyridin-3-yl)methyl)isoquinolin-6-amine]
- IC50 [1]: 3 to 10 µM
- IC50 [2]: > 40 µM
- IC50 [3]: > 40 µM
- IC50 [4]: > 40 µM
- IC50 [5]: > 40 µM

Compound: CN1CCC(CNc2ccc(CNc3cncc4[nH]ccc34)cn2)CC1 [Example 1213, N-((6-(((1-methylpiperidin-4-yl)methyl)amino)pyridin-3-yl)methyl)-1H-pyrrolo[2,3-c]pyridin-4-amine]
- IC50 [1]: 3 to 10 µM
- IC50 [2]: 10 to 40 µM
- IC50 [3]: > 100 µM
- IC50 [4]: > 40 µM
- IC50 [5]: 10 to 40 µM

Compound: CN1CCC(CNc2ccc(CNc3ccc4cnccc4c3F)cn2)CC1 [Example 1224, 5-fluoro-N-((6-(((1-methylpiperidin-4-yl)methyl)amino)pyridin-3-yl)methyl)isoquinolin-6-amine]
- IC50 [1]: 3 to 10 µM
- IC50 [2]: > 40 µM
- IC50 [3]: > 40 µM
- IC50 [4]: > 40 µM
- IC50 [5]: > 100 µM

Compound: COc1nnc2n1CCN(c1ccc(CNc3cccc4c(N)nccc34)cn1)C2 [Example 1250, N5-((6-(3-methoxy-5,6-dihydro-[1,2,4]triazolo[4,3-a]pyrazin-7(8H)-yl)pyridin-3-yl)methyl)isoquinoline-1,5-diamine]
- IC50 [1]: 1 to 3 µM
- IC50 [2]: > 40 µM
- IC50 [3]: 3 to 10 µM
- IC50 [4]: > 40 µM
- IC50 [5]: > 40 µM

Compound: CN1CCN(CCc2ccc(CNc3ccc4c(N)nccc4c3)c(F)c2)CC1 [Example 2181, 6-N-({2-fluoro-4-[2-(4-methylpiperazin-1-yl)ethyl]phenyl}methyl)isoquinoline-1,6-diamine]
- IC50 [1]: 0.3 to 1 µM
- IC50 [2]: 10 to 40 µM
- IC50 [3]: 0.3 to 1 µM
- IC50 [4]: 10 to 40 µM
- IC50 [5]: 3 to 10 µM

Compound: CN1CCN(CCc2ccc(CNc3cccc4c(N)nccc34)c(F)c2)CC1 [Example 2182, 5-N-({2-fluoro-4-[2-(4-methylpiperazin-1-yl)ethyl]phenyl}methyl)isoquinoline-1,5-diamine]
- IC50 [1]: 0.3 to 1 µM
- IC50 [2]: > 40 µM
- IC50 [3]: 10 to 40 µM
- IC50 [4]: > 40 µM
- IC50 [5]: > 40 µM

Second part, the compound after the results:

- IC50 [1]: 0.3 to 1 µM
- IC50 [2]: 10 to 40 µM
- IC50 [3]: 3 to 10 µM
- IC50 [4]: 10 to 40 µM
- IC50 [5]: 10 to 40 µM
Compound: Nc1nccc2c(NCc3ccc(OCC4CCn5ccnc5C4)nc3)cccc12 (single isomer, unassigned) [Example 1030, (S*)-N5-((6-((5,6,7,8-tetrahydroimidazo[1,2-a]pyridin-7-yl)methoxy)pyridin-3-yl)methyl)isoquinoline-1,5-diamine]

- IC50 [1]: 0.01 to 0.1 µM
- IC50 [2]: 3 to 10 µM
- IC50 [3]: 0.3 to 1 µM
- IC50 [4]: 0.1 to 0.3 µM
- IC50 [5]: 0.3 to 1 µM
Compound: Nc1nccc2cc(NCc3ccnc(OCC4CCn5ccnc5C4)c3)ccc12 (single isomer, unassigned) [Example 4267, 6-N-({2-[(7S*)-5H,6H,7H,8H-imidazo[1,2-a]pyridin-7-ylmethoxy]pyridin-4-yl}methyl)isoquinoline-1,6-diamine]

- IC50 [1]: 0.01 to 0.1 µM
- IC50 [2]: 1 to 3 µM
- IC50 [3]: 0.3 to 1 µM
- IC50 [4]: 3 to 10 µM
- IC50 [5]: 3 to 10 µM
Compound: CN1CCC(CNc2ccc(CNc3ccc4c(N)nccc4c3)cn2)CC1 [Example 1033, N6-((6-(((1-methylpiperidin-4-yl)methyl)amino)pyridin-3-yl)methyl)isoquinoline-1,6-diamine]

- IC50 [1]: 0.3 to 1 µM
- IC50 [2]: 10 to 40 µM
- IC50 [3]: 10 to 40 µM
- IC50 [4]: > 40 µM
- IC50 [5]: > 40 µM
Compound: CC(C)N1CC2(CN(Cc3ccc(CNc4cccc5c(N)nccc45)c(F)c3)C2)C1 [Example 1036, N5-(2-fluoro-4-((6-isopropyl-2,6-diazaspiro[3.3]heptan-2-yl)methyl)benzyl)isoquinoline-1,5-diamine]

- IC50 [1]: 0.1 to 0.3 µM
- IC50 [2]: > 40 µM
- IC50 [3]: > 40 µM
- IC50 [4]: 10 to 40 µM
- IC50 [5]: 10 to 40 µM
Compound: Cc1cc2c(NCc3ccc(NCC4CCN(C)CC4)nc3)ccnc2[nH]1 [Example 1202, 2-Methyl-N-((6-(((1-methylpiperidin-4-yl)methyl)amino)pyridin-3-yl)methyl)-1H-pyrrolo[2,3-b]pyridin-4-amine]

- IC50 [1]: 0.01 to 0.1 µM
- IC50 [2]: 10 to 40 µM
- IC50 [3]: 10 to 40 µM
- IC50 [4]: 1 to 3 µM
- IC50 [5]: 3 to 10 µM
Compound: CN1CCC(CNc2ccc(CNc3cncc4[nH]c(Cl)cc34)cn2)CC1 [Example 1251, 2-Chloro-N-((6-(((1-methylpiperidin-4-yl)methyl)amino)pyridin-3-yl)methyl)-1H-pyrrolo[2,3-c]pyridin-4-amine]

- IC50 [1]: 0.3 to 1 µM
- IC50 [2]: > 40 µM
- IC50 [3]: 3 to 10 µM
- IC50 [4]: > 40 µM
- IC50 [5]: > 40 µM
Compound: Nc1nccc2c(NCc3ccc(N4CCn5c(nnc5C(F)(F)F)C4)nc3)cccc12 [Example 1275, N5-((6-(3-(trifluoromethyl)-5,6-dihydro-[1,2,4]triazolo[4,3-a]pyrazin-7(8H)-yl)pyridin-3-yl)methyl)isoquinoline-1,5-diamine]

- IC50 [1]: 0.1 to 0.3 µM
- IC50 [2]: > 40 µM
- IC50 [3]: 3 to 10 µM
- IC50 [4]: > 40 µM
- IC50 [5]: > 40 µM
Compound: Cc1nnc2n1CCN(c1ccc(CNc3cccc4c(N)nccc34)cn1)C2 [Example 1279, N5-((6-(3-methyl-5,6-dihydro-[1,2,4]triazolo[4,3-a]pyrazin-7(8H)-yl)pyridin-3-yl)methyl)isoquinoline-1,5-diamine]

- IC50 [1]: 0.1 to 0.3 µM
- IC50 [3]: 0.3 to 1 µM
- IC50 [4]: 1 to 3 µM
- IC50 [5]: 0.3 to 1 µM
Compound: CN1CCC(COc2cc(CNc3ccc4c(N)nccc4c3)cc(C(F)(F)F)n2)CC1 [Example 4265, N6-((2-((1-methylpiperidin-4-yl)methoxy)-6-(trifluoromethyl)pyridin-4-yl)methyl)isoquinoline-1,6-diamine]

- IC50 [1]: 0.1 to 0.3 µM
- IC50 [2]: > 40 µM
- IC50 [3]: 3 to 10 µM
- IC50 [4]: > 40 µM
Compound: Nc1nccc2c(NCc3ccc(N4CCn5c(nnc5C(F)(F)F)C4)cn3)cccc12 [Example 9001, N5-((5-(3-(trifluoromethyl)-5,6-dihydro-[1,2,4]triazolo[4,3-a]pyrazin-7(8H)-yl)pyridin-2-yl)methyl)isoquinoline-1,5-diamine]

- IC50 [1]: 0.1 to 0.3 µM
- IC50 [2]: > 40 µM
- IC50 [3]: > 40 µM
- IC50 [4]: > 40 µM
Compound: Cc1cc(N2CCn3c(nnc3C(F)(F)F)C2)nc(C)c1CNc1cccc2c(N)nccc12 [Example 9006, N5-((2,4-dimethyl-6-(3-(trifluoromethyl)-5,6-dihydro-[1,2,4]triazolo[4,3-a]pyrazin-7(8H)-yl)pyridin-3-yl)methyl)isoquinoline-1,5-diamine]
